Experimental data reported in US8846873B2, “Antibodies directed to GPNMB and uses thereof” (Celldex Therapeutics, Inc., priority 2004, dated 2014).

Experiments:
[1] = test system: SR (anaplastic large T cell lymphoma, ALCL); assay: Clonogenic assay with 1.15.1-AE (methylcellulose); assay type: cell-based
Procedure: (§1) Lymphoma or leukemia cell lines were mixed with methylcellulose base media (R&D Systems, USA) and in various concentrations of unconjugated and Auristatin E-conjugated 1.15.1 antibody before plating onto 6-well tissue culture plates (Becton Dickinson, Franklin Lakes, N.J., USA). […] Plates were incubated at 37° C. and examined daily. On days 14-18, colonies on the plates were counted.

[2] = test system: Karpas 299 (ALCL); assay: Clonogenic assay with 1.15.1-AE (methylcellulose); assay type: cell-based
Procedure: as §1

[3] = test system: U937 (histiocytic lymphoma, monocytic); assay: Clonogenic assay with 1.15.1-AE (methylcellulose); assay type: cell-based
Procedure: as §1

[4] = test system: SUP-M2 (ALCL); assay: Clonogenic assay with 1.15.1-AE (methylcellulose); assay type: cell-based
Procedure: as §1

[5] = test system: CCRF-CEM (acute T cell lymphoblastic leukemia); assay: Clonogenic assay with 1.15.1-AE (methylcellulose); assay type: cell-based
Procedure: as §1

[6] = test system: THP-1 (acute monocytic leukemia); assay: Clonogenic assay with 1.15.1-AE (methylcellulose); assay type: cell-based
Procedure: as §1

[7] = test system: Jurkat (acute T-cell leukemia); assay: Clonogenic assay with 1.15.1-AE (methylcellulose); assay type: cell-based
Procedure: as §1

[8] = test system: PL-21 (acute myeloid leukemia); assay: Clonogenic assay with 1.15.1-AE (methylcellulose); assay type: cell-based
Procedure: as §1

[9] = test system: DEL (ALCL); assay: Clonogenic assay with 1.15.1-AE (methylcellulose); assay type: cell-based
Procedure: as §1

[10] = test system: MOLT-4 (acute T cell lymphoblastic leukemia); assay: Clonogenic assay with 1.15.1-AE (methylcellulose); assay type: cell-based
Procedure: as §1

[11] = test system: KG-1 (acute myelogenous leukemia); assay: Clonogenic assay with 1.15.1-AE (methylcellulose); assay type: cell-based
Procedure: as §1

[12] = test system: SU-DHL-1 (ALCL); assay: Clonogenic assay with 1.15.1-AE (methylcellulose); assay type: cell-based
Procedure: as §1

[13] = test system: HEK293 cells; assay: Clonogenic assay, empty vector or GPNMB transfected cells; assay type: cell-based, human; conditions: 96 hours treatment
Procedure: HEK293 cells are transfected with empty vector (vector) or GPNMB-containing plasmid (GPNMB) as described in Materials and Methods. A. Cell lysates are prepared from the transfected HEK293 cells and the expression of GPNMB (upper panel) or actin (lower panel) is determined by immunoblotting. Lane 1: Empty vector transfectants. Lane 2: GPNMB transfectants. B. Flow cytometry analysis of GPNMB expression on empty vector or GPNMB transfected cells. C. […] After a clonogenic assay, the surviving fraction is normalized to the untreated control and expressed as a percentage of the control using GraphPad Prism graphing software. Each treatment is performed in triplicate. A representative graph from two independent experiments is shown.
(§2) Cells were plated in 96-well plates and allowed to recover overnight. […] The cells were then transferred into 6-well plates and allowed to form colonies. Colonies were stained with Giemsa stain (Sigma) and counted. The surviving cell fractions were calculated based upon the ratio of the treated sample and the untreated control. The results were expressed as a percentage of control using GraphPad Prism Version 4 software.

[14] = test system: SK-Mel-2 cells; assay: Clonogenic assay after GPNMB siRNA transfection; assay type: cell-based, human
Procedure: SK-MeI-2 cells are transfected with 50 nM of control siRNA or siRNA targeting GPNMB. A. Cell lysates are prepared from the transfected SK-Mel-2 cells 2 and 4 days post-transfection and the expression of GPNMB (upper panel) or actin (lower panel) is determined by immunoblotting. Lane 1: Mock (oligofectamine) transfection. Lane 2: Control siRNA transfection. Lane 3: GPNMB siRNA transfection. B. Flow cytometry analysis of GPNMB expression 2 and 4 days after transfection. SK-Mel-2 cells are transfected with mock, control siRNA or GPNMB siRNA as indicted in the Materials and Methods. C. […] The surviving fraction is normalized to the untreated control and expressed as a percentage of control using GraphPad Prism graphing software. Each treatment is performed in triplicate. A representative experiment from two independent studies is shown.
as §2
The amount of GPNMB expression was reduced for at least 7 days after transfection.

[15] = test system: SK-MEL-5 melanoma xenografts; assay: Human SK-MEL-5 melanoma xenograft in athymic mice; assay type: in vivo
Procedure: Test Animals: Five- to 6-week old athymic mice (CD-1 nu/nu females), used for human tumor xenografts, were obtained from Harlan Laboratories (Indianapolis, Ind.). Animals were housed in specific pathogen-free conditions, according to the guidelines of the Association for Assessment and Accreditation of Laboratory Animal Care International (AAALAC International). Test animals were provided pelleted food and water ad libitum and kept in a room with conditioned ventilation (HVAC), temperature (22°±2° C.), relative humidity (55%±15%), and photoperiod (12 hr). All studies were carried out with approved institutional animal care and use protocols.
Human Melanoma Xenograft Models. The tumor inhibitory activity of the CR011-MMAE immunoconjugate was measured in an anti-tumor xenograft model using athymic mice, according to published methods (see Geran et al., Cancer Chemother. Rep. 3:1-104 (1972)). […] When tumors became established (10-20 days), the animals were pair-matched into groups (n=6 mice/group), and treatment was administered by intravenous injection (tail vein).
The SK-MEL-2 human melanoma (ATCC #HTB-68) was derived from a metastatic site (skin of thigh) of a person with malignant melanoma, and the SK-MEL-5 human melanoma (ATCC #HTB-70) was derived from a metastatic site (axillary lymph node) of a person with malignant melanoma (see Fogh et al., J. Natl. Cancer Inst. 59: 221-226 (1977)). Both cell lines were obtained from the American Type Culture Collection.
The effects of treatment were monitored by repetitive tumor measurements across 2 diameters with Vernier calipers; tumor size (in mg) was calculated using a standard formula, (W^2×L)/2, assuming a specific gravity of 1.0. Tumor size and body weights were assessed twice weekly. Mice were examined daily, however, and moribund animals were humanely euthanized if clinical indications of excessive pain or distress were noted (i.e., prostration, hunched posture, paralysis/paresis, distended abdomen, ulcerations, abscesses, seizures, and/or hemorrhages). Animals with tumors exceeding 2,000 mg were removed from the study and euthanized humanely.
Soon after the commencement of treatment with paclitaxel, however, significant tumor growth inhibition was observed (P≦0.039) at day 3 after treatment began, and this anti-tumor effect continued, producing 100% growth inhibition (stasis). The responses of SK-MEL-5-bearing test animals to vinblastine and paclitaxel were short-lived. After cessation of treatment at the maximally tolerated doses, tumors resumed rapid, progressive growth.

## CR011-vcMMAE: anti-GPNMB antibody 1.15.1 coupled to monomethylauristatin E via protease-sensitive valine-citrulline linker
[1]
  Clonogenic Assay with 1.15.1-AE IC50: 0.296 µg/mL
  IC50: 2 nM
[2]
  Clonogenic Assay with 1.15.1-AE IC50: Inconclusive
[3]
  Clonogenic Assay with 1.15.1-AE IC50: 0.34 µg/mL
  IC50: 2.4 nM
[4]
  Clonogenic Assay with 1.15.1-AE IC50: No growth
[5]
  Clonogenic Assay with 1.15.1-AE IC50: No growth
[6]
  Clonogenic Assay with 1.15.1-AE IC50: 0.207 µg/mL
  IC50: 1.4 nM
[7]
  Clonogenic Assay with 1.15.1-AE IC50: No effect
[8]
  Clonogenic Assay with 1.15.1-AE IC50: No effect
[9]
  Clonogenic Assay with 1.15.1-AE IC50: No effect
[10]
  Clonogenic Assay with 1.15.1-AE IC50: No effect
[11]
  Clonogenic Assay with 1.15.1-AE IC50: No growth
[12]
  Clonogenic Assay with 1.15.1-AE IC50: No effect
[13]
  sensitivity to growth-inhibition, GPNMB-expressing vs control HEK293 cells: more sensitive
[14]
  sensitivity to growth-inhibitory activity following siRNA-mediated GPNMB knockdown: less sensitive
[15]; 2.5 mg/kg/treatment
  complete regressions: Complete regressions occurred
[15]; 10 mg/kg/treatment, compared to PBS-treated controls
  time after treatment began to significant anti-tumor effects: 10 days
[15]; 10 mg/kg/treatment, compared to saline
  time after treatments began to significant anti-tumor effects: 7 days
[15]; CR011-ONC-3, i.v., vs saline and PBS control groups
  anti-tumor effect: Substantial tumor growth inhibition, as well as tumor growth delay and complete regressions
[15]; i.v., q4d x4
  doses at which complete regressions occurred: > 2.5 mg/kg
[15]; treated tumor-bearing animals
  toxicity (mortality, body weight or weight gain): no indication of toxicity
